Test results published in patent US8618082B2, “Lupeol anti-tumor agent and uses thereof” (Wisconsin Alumni Research Foundation, priority 2004, dated 2013).

Tests used:
CD-1 mouse skin = test: TPA-induced cutaneous edema, skin punch weight; type: in vivo; conditions: TPA alone, 3.2 nmole/mouse topical
Description: Studies from the inventors' laboratory and by other have shown that TPA application to mouse skin results in cutaneous edema (Katiyar et at, 1996; Liang et at, 2002). In the present study, the inventors evaluated the protective effects of topical application of Lupeol in TPA-mediated cutaneous edema in CD-1 mouse. The inventors tested four doses 0.25, 0.5, 1 and 2 mg of Lupeol per animal in the inventors' preliminary studies. […] The CD-1 mice were topically treated with Lupeol (1 and 2 mg/mouse) and 30 min later were topically treated with TPA (3.2 nmole/mouse). […] At least four determinations were made at different dorsal skin sites per mouse in each group. The data represents the mean±SE of eight mice (*p<0.01 vs TPA).
(§1) The animals were shaved on the dorsal side of the skin, divided into four groups and treated topically on the shaved area with either 0.4 ml vehicle (acetone), or TPA (3.2 nmol/0.4 ml acetone/animal, v/v), or Lupeol (1 or 2 mg/0.2 ml acetone/animal, w/v) followed 30 min later with TPA (3.2 nmol/0.2 ml acetone/animal). Animals were sacrificed at different times point i.e. 6, 12, 24 and 48 h post TPA treatment. The epidermis was separated from the whole skin and homogenized in 0.1 M Tris-HCl buffer (pH 7.2) using a Polytron tissue homogenizer (Brinkmann Instruments, Westbury, N.Y., USA) at 100,000×g supernatant, and microsomal fractions were prepared as described earlier (Katiyar and Mukhtar, 1997). The sample of 6 h treatment group was used to assess the ODC activity as this time point has previously been shown for optimal induction of the enzyme (Katiyar er al., 1996).
To assess the inhibitory effect of pre-application of Lupeol on TPA-induced edema, 1 cm-diameter punches of skin from vehicle-, Lupeol-, TPA- or Lupeol- and TPA-treated mice were removed, made free of fat pads, and weighed immediately. After drying for 24 h at 50° C., the skin punches were reweighed, and the loss of water content was determined. The difference in the amount of water gain between the control (vehicle treated) and TPA treated represented the extent of edema induced by TPA, whereas that between the control vehicle and Lupeol plus TPA represented the inhibitory effect of Lupeol. For the hyperplasia study, skin was removed, fixed in 10% formalin, and embedded in paraffin. Vertical sections (5 μm) were cut, mounted on a glass slide, and stained with hematoxylin and eosin.

epidermal COX-2 protein = test: TPA-induced epidermal COX-2 protein expression (western blot); type: in vivo, mouse; conditions: TPA topical, 6 h post treatment
Description: (§2) FIG. 4. Inhibitory effect of Lupeol on TPA-induced epidermal ODC, iNOS and COX-2 protein expression in CD-1 mice: At different times after treatment, the animals were sacrificed, epidermal protein lysate was prepared, and ODC and COX-2 protein expression were determined. Equal loading of protein was confirmed by stripping the immunoblot and reprobing it for β-actin. The immunoblots shown here are representative of three independent experiments with similar results. The values above each lane indicate relative density of the band normalized to β-actin.
as §1
(§3) Epidermis from the whole skin was separated as described earlier (Katiyar et al., 1999) and was homogenized in ice-cold lysis buffer [50 mM Tris-HCl, 150 mM NaCl, 1 mM EGTA, 1 mM EDTA, 20 mM NaF, 100 mM Na3VO4, 0.5% NP-40, 1% Triton X-100, 1 mM PMSF (pH 7.4)] with freshly added protease inhibitor cocktail, Protease Inhibitor Cocktail Set III (Calbiochem, La Jolla, Calif., USA). The homogenate was then centrifuged at 14,000×g for 25 minutes at 4° C. and the supernatant (total cell lysate) was collected, aliquoted and stored at −80° C. For the preparation of nuclear lysate, 0.2 g of the epidermis was homogenized in 1 ml of ice-cold phosphate-buffered saline (pH 7.6) and centrifuged at 12,000×g for 5 min at 4° C. […] The protein content in the lysates was measured by DC BioRad assay (BioRad Laboratories, Hercules, Calif.) as per the manufacturer's protocol.
(§4) For western blot analysis, 40 μg of the protein was resolved over 8-12% polyacrylamide gels and transferred to a nitrocellulose membrane. […] This was followed by incubation with anti-mouse or anti-rabbit secondary antibody horse-radish peroxidase (Amersham Life Sciences, Inc., USA) for 1 h and then washed several times and detected by chemiluminescence ECL kit, (Amersham Life Sciences, Inc., USA) and autoradiography using XAR-5 film obtained from Eastman Kodak Co. (Rochester, N.Y., USA). […]

epidermal iNOS protein = test: TPA-induced epidermal iNOS protein expression (western blot); type: in vivo, mouse; conditions: TPA alone topical
Description: as §2
(§5) The animals were shaved on the dorsal side of the skin, divided into four groups and treated topically on the shaved area with either 0.4 ml vehicle (acetone), or TPA (3.2 nmol/0.4 ml acetone/animal, v/v), or Lupeol (1 or 2 mg/0.2 ml acetone/animal, w/v) followed 30 min later with TPA (3.2 nmol/0.2 ml acetone/animal). Animals were sacrificed at different times point i.e. 6, 12, 24 and 48 h post TPA treatment. […]
(§6) Epidermis from the whole skin was separated as described earlier (Katiyar et al., 1999) and was homogenized in ice-cold lysis buffer [50 mM Tris-HCl, 150 mM NaCl, 1 mM EGTA, 1 mM EDTA, 20 mM NaF, 100 mM Na3VO4, 0.5% NP-40, 1% Triton X-100, 1 mM PMSF (pH 7.4)] with freshly added protease inhibitor cocktail, Protease Inhibitor Cocktail Set III (Calbiochem, La Jolla, Calif., USA). […] The protein content in the lysates was measured by DC BioRad assay (BioRad Laboratories, Hercules, Calif.) as per the manufacturer's protocol.
as §4

[1] = system: catalytic (p110) and regulatory (p85) subunit of PI3K; test: TPA-induced epidermal PI3K expression (western blot); type: in vivo, mouse
Description: (§7) FIG. 5. Inhibitory effect of Lupeol on TPA-induced activation of PI3K and phosphorylation of Akt in CD-1 mice: At different times after treatment, the animals were sacrificed, epidermal protein lysate was prepared, and PI3K and phosphorylated (Thr^308) Akt and total Akt protein expression were determined. The immunoblots shown here are representative of three independent experiments with similar results. The values above each lane indicate relative density of the band normalized to β-actin.
as §1, §3, §4

epidermal ODC protein = test: TPA-induced epidermal ODC protein expression (western blot); type: in vivo, mouse; conditions: TPA topical
Description: as §2, §5, §6, §4

IKKα protein = test: TPA-induced activation of IKKα (western blot); type: in vivo, mouse; conditions: TPA topical
Description: FIG. 6. Inhibitory effect of Lupeol on TPA-induced activation of IKKα, and phosphorylation and degradation of IκBα in CD-1 mice: At different times after treatment, the animals were sacrificed, epidermal cytosolic was prepared, and protein expression was determined. Equal loading was confirmed by stripping the immunoblot and reprobing it for β-actin. The immunoblots shown here are representative of three independent experiments with similar results. The values above each lane indicate relative density of the band normalized to β-actin.
as §5, with “acetone/animal).” for “acetone/animal). Animals were sacrificed at different times point i.e. 6, 12, 24 and 48 h post TPA treatment.”
as §6, with “protocol. […]” for “protocol.”

Akt = test: TPA-induced phosphorylation of Akt at Thr308 (western blot); type: in vivo, mouse; conditions: TPA, 6 h post treatment
Description: as §7, §5, §6, §4

**Q.** What does the source list for `CCCCCCCCCCCCCC(=O)O[C@@H]1[C@@H](C)[C@@]2(O)[C@@H](C=C(CO)C[C@]3(O)C(=O)C(C)=C[C@@H]23)[C@@H]2C(C)(C)[C@]12OC(C)=O` [TPA, 12-O-tetradecanoyl-phorbol acetate, reference compound]?
**A.** Skin punch weight 24 hrs (CD-1 mouse skin): 23.5 ± 0.5 mg/cm2; Skin punch weight 48 hrs (CD-1 mouse skin): 25.5 ± 0.75 mg/cm2; maximum increase in epidermal COX-2 protein expression vs acetone control (epidermal COX-2 protein): 2.7 fold; increase in iNOS protein expression vs vehicle treated controls (epidermal iNOS protein): 5 fold; increase in expression of catalytic (p110) and regulatory (p85) subunit of PI3K ([1]; TPA topical): 2 to 3 fold; induction in the expression of catalytic subunit p110 ([1]; TPA, 6 h post treatment): 3 fold; increase in epidermal ODC protein level vs acetone treated control (epidermal ODC protein): 4 fold; increase in the expression of IKKα protein (IKKα protein): 5.5 fold; maximum phosphorylation of Akt (Akt): 3.8 fold
